Reference: patent US20120021939A1, “METHOD FOR PROFILING DRUG COMPOUNDS USING PROTEIN KINASE INHIBITORS” (priority 2009, published 2012)

Tested on: Renal Cell Carcinoma patients
Assay: Clinical efficacy of Bevacizumab treatment by body imaging (size reduction of the tumor)
Assay type: in vivo, human
Experimental: (§1) A study is performed to generate kinase inhibition profiles from tumor tissues derived from Renal Cell Carcinoma patients treated with the drug Bevacizumab. The tissue is derived from tumor resection performed before the Bevacizumab treatment is started. Bevacizumab is an antibody that blocks the triggering of the Vascular Endothelial Growth Factor Receptors (VEGFR), and thereby blocks the VEGFR signal transduction pathways.
The activity of the targeted VEGFR or VEGFR pathway is assessed in lysates prepared from Bevacizumab responding and non-responding patients. Clinical efficacy is determined using body imaging, thereby monitoring the size reduction of the tumor. In this assessment the lysates are profiled for activities of kinases on a peptide microarray comprising peptide substrates for protein tyrosine kinases. […] It is shown that peptides that are inhibited by these VEGFR kinase inhibitors, thus reporting VEGFR activity, are found in the microarray analyses of the Bevacizumab responding patients, and are not inhibited in the analyses of the patients not responding to Bevacizumab (Table 1). […] As these inhibition profiles are generated from tumor tissue derived from the patients before the treatment is started, these inhibition profiles are predictive for the clinical response of these patients. In patients with an active VEGFR pathway this drug is clinically active. In patients with no active VEGFR pathway no clinical effects are provided.
as §1, with “before” for “before the”, “thereby it” for “thereby”, “pathways. In patients with an active VEGFR pathway this drug is expected to be clinically active.” for “pathways.”
The activity of the alternative pathway is assessed in lysates prepared from Bevacizumab responding and non-responding patients. Clinical efficacy is determined using body imaging, thereby monitoring the size reduction of the tumor. In this assessment the lysates are profiled for activities of kinases on a peptide microarray comprising peptide substrates for protein tyrosine kinases. These kinase activity profiling tests are performed both in the presence and absence of an IGFR kinase inhibitor. […] It is shown that peptides that are inhibited by this IGFR kinase inhibitor, thus reporting IGFR activity, are found in the analyses of the Bevacizumab responding patients, and are not inhibited in the analyses of the patients not responding to Bevacizumab (Table 2). […] As these inhibition profiles are generated from tumor tissue derived from the patients before the treatment is started, these inhibition profiles are predictive for clinical response. Therefore, in patients with no active VEGFR pathway or with an alternative pathway allowing the tumor growth independent of the VEGFR signalling pathway, no clinical effect is obtained.

Bevacizumab: antibody that blocks the triggering of the Vascular Endothelial Growth Factor Receptors (VEGFR); binds VEGF
Clinical response (Example 1, Patient 1, Renal Cell Carcinoma): Responder
Clinical response (Example 1, Patient 2, Renal Cell Carcinoma): Responder
Clinical response (Example 1, Patient 3, Renal Cell Carcinoma): Non Responder
Clinical response (Example 1, Patient 4, Renal Cell Carcinoma): Non Responder
Clinical response (Example 2, Patient 1, Renal Cell Carcinoma): Responder
Clinical response (Example 2, Patient 2, Renal Cell Carcinoma): Responder
Clinical response (Example 2, Patient 3, Renal Cell Carcinoma): Non Responder
Clinical response (Example 2, Patient 4, Renal Cell Carcinoma): Non Responder
